From PMC3369547, “Antimicrobial Constituents of Artemisia afra Jacq. ex Willd. against Periodontal Pathogens” (Evidence-based Complementary and Alternative Medicine : eCAM, 2012)
≈ marks a conversion by molar mass, not a printed value. Like-named read-outs stand apart in the source and are kept apart here.

Assays:
[1] = test system: Actinomyces naeslundii (ATCC 19039); experiment: Microdilution MIC/MMC (INT) against Actinomyces naeslundii; format: cell-based; details: A.n, Gram +ve, table title says mg/mL; for MBC: MMC in title
Experimental: (§1) The microorganisms used in this study include Actinomyces naeslundii (ATCC 19039), Actinomyces israelii (ATCC 10049), Aggregatibacter actinomycetemcomitans (ATCC 33384), Candida albicans (Med I), Porphyromonas gingivalis (ATCC 33277), Prevotella intermedia (ATCC 25611), and Streptococcus mutans (ATCC 25175). Bacteria were grown in the Casein-peptone Soy Agar medium (CASO) (Merck SA (Pty) Ltd.) under anaerobic conditions in a jar with anaerocult A (Merck SA (Pty) Ltd.), at 37°C for 48 hours. Sabouraud Dextrose Agar medium (SDA) (Merck SA (Pty) Ltd.) was used for the culturing of Candida albicans and incubated at 37°C for 24 hours under aerobic conditions. Subculturing was done once weekly.
(§2) The microdilution technique using 96-well microplates was used to obtain the MIC and MMC values of the crude extract against microorganisms under study. The extract was serially diluted in the 96-well plate with 48 hours old microorganisms (5 × 10^6 CFU/mL) grown at 37°C and the final concentration of extract and positive control (CHX) ranged from 25.0 mg/mL to 0.8 mg/mL. Microbial growth was indicated by adding 40 μL of (0.2 mg/mL) p-iodonitrotetrazolium violet (INT) (Sigma-Aldrich, South Africa) to microplate wells and incubated at 37°C for 48 hours. MIC was defined as the lowest concentration that inhibited the colour change of INT. […] These suspensions were reincubated at 37°C for 48 hours. The MMC was determined as the lowest concentration of extract which inhibited 100% growth of microorganisms.

[2] = test system: Actinomyces israelii (ATCC 10049); experiment: Microdilution MIC/MMC (INT) against Actinomyces israelii; format: cell-based; details: A.i, Gram +ve, table title says mg/mL; for MBC: MMC in title
Experimental: as §1, §2

[3] = test system: Aggregatibacter actinomycetemcomitans (ATCC 33384); experiment: Microdilution MIC/MMC (INT) against Aggregatibacter actinomycetemcomitans; format: cell-based; details: A.a, Gram –ve, table title says mg/mL; for MBC: MMC in title
Experimental: as §1, §2

[4] = test system: Prevotella intermedia (ATCC 25611); experiment: Microdilution MIC/MMC (INT) against Prevotella intermedia; format: cell-based; details: P.i, Gram –ve, table title says mg/mL; for MBC: MMC in title
Experimental: as §1, §2

[5] = test system: Porphyromonas gingivalis (ATCC 33277); experiment: Microdilution MIC/MMC (INT) against Porphyromonas gingivalis; format: cell-based; details: P.g, Gram –ve, table title says mg/mL; for MBC: MMC in title
Experimental: as §1, §2

[6] = test system: Candida albicans (Med I); experiment: Microdilution MIC/MMC (INT) against Candida albicans; format: cell-based; details: C.a, Yeast, table title says mg/mL; for MBC: MMC in title
Experimental: as §1, §2

[7] = test system: oral microorganisms; experiment: Microdilution MIC/MMC, summary over tested microbial species; format: cell-based; details: against A. israelii and A. naeslundii
Experimental: as §1, §2

[8] = DPPH free radical scavenging assay; format: biochemical; details: 37°C, 30 min, 517 nm
Experimental: The free radical scavenging activity was measured using 1, 1 diphenyl-2-picryl-hydraxyl (DPPH) assay with slight modifications. The ethanol extract of A. afra and Vitamin C (positive control) 1000 μg/mL (20 μL) was added in the first three wells of a 96-well plate containing 200 μL of distilled water to make up final concentration of 100 μg/mL and the remaining wells were filled with 110 μL of distilled water. The first raws containing the extract/compounds were serially diluted to wells which contain 110 μL of distilled water, and later, 90 μL of methanolic solution of DPPH ([…]) was added to all the wells. The final concentrations of the extract/compounds ranged from 100 to 0.8 μg/mL. The plates were incubated at 37°C for 30 min and the absorbance was measured at 517 nm using the ELISA plate reader. The percent radical scavenging activity by A. afra was determined by comparison with ethanol (blank). The inhibition ratio was calculated as follows: % DPPH radical-scavenging = (AC-AS)/AC × 100, where AC is absorbance of the control solution (containing only DPPH solution), and AS is the absorbance of the sample in DPPH solution. The percentage of DPPH radical-scavenging was plotted against the plant extract/compounds concentrations (μg/mL) to determine the concentration of extract/compound required to scavenge DPPH by 50% (EC50).

[9] = XTT cell proliferation (cytotoxicity) assay on McCoy cells; format: cell-based; details: mouse; McCoy cells, XTT, 48 h; read-out: IC50 (cytotoxicity)
Experimental: (§3) Extract and compounds were dissolved in dimethyl sulfoxide (DMSO) and stored at −20°C. All tested compounds were diluted to the final concentration with RPMI 1640 and control cultures were diluted with 0.1% DMSO.
(§4) McCoy cells were maintained in monolayer culture at 37°C and 5% CO2 with 10% […] Medium, 10 μg/mL of penicillin, 10 μg/mL, streptomycin, 40 μg/mL gentamycin, and 0.25 μg/mL fungizone.
(§5) A microtiter plate with McCoy cells was used for testing all the ethanol extracts for cytotoxicity following the method of [26]. Cytotoxicity was measured by the XTT (sodium 3′-[1-(phenyl amino-carbonyl)-3,4-tetrazolium]-bis-[4-methoxy-6-nitro] benzene sulfonic acid hydrate) method using a cell proliferation kit II (Roche Diagnostics GmbH). Hundred microlitres of McCoy cells (1 × 10^5 mL) was seeded onto a microtiter plate and incubated for 24 h to allow the cells to attach to the bottom of the plate. Dilution series were made of the extract and compound and the various concentrations (400 to 3.1 μg/mL) were added to the microtitre plate and incubated for 48 h. The XTT reagents were added to a final concentration of 0.3 mg/mL and the cells were incubated for 1-2 hours. The positive drug control (Zearalenone) at concentrations range of (10 μg/mL to 0.6 μg/mL) was included in the assay. After incubation the absorbance of the colour was spectrophotometrically quantified using an ELISA plate reader, which measured the optical density at 490 nm with a reference wavelength of 690 nm. The assay was carried out in triplicate.

[10] = test system: murine melanoma B16 cell line; parameters: method as in PMID 15363977; details: B16 cells; cited from earlier work
[11] = test system: McCoy fibroblast cells; experiment: XTT cell proliferation (cytotoxicity) assay on McCoy cells; format: cell-based; details: McCoy cells, XTT, 48 h
Experimental: as §3, §4, §5

[12] = Actinomyces naeslundii, ATCC19039
[13] = Actinomyces israelii, ATCC10049, read-out: MIC
[14] = Aggregatibacter actinomycetemcomitans, ATCC33384
[15] = Prevotella intermedia, ATCC25611
[16] = Porphyromonas gingivalis, ATCC33277

| Molecule | MIC [2, 13] [µg/mL] | MBC [3, 14] [µg/mL] | MIC [3, 14] [µg/mL] | MBC [4, 15] [µg/mL] | MBC [5, 16] [µg/mL] | MBC [6] [µg/mL] | MIC [6] [µg/mL] | DPPH scavenging IC50 [8] [µg/mL] | MBC [1] [µg/mL] | MIC [1] [µg/mL] | MBC [2] [µg/mL] | MIC [2] [µg/mL] | MBC [3] [µg/mL] | MIC [3] [µg/mL] | MBC [4] [µg/mL] | MIC [4] [µg/mL] | MBC [5] [µg/mL] | MIC [5] [µg/mL] | other results |
| --- | --- | --- | --- | --- | --- | --- | --- | --- | --- | --- | --- | --- | --- | --- | --- | --- | --- | --- | --- |
| C[C@H]1[C@H](C)CC[C@]2(C)CC[C@]3(C)C(=CC[C@@H]4[C@@]5(C)CC[C@H](O)C(C)(C)[C@@H]5CC[C@]43C)[C@H]12 [compound 4, α-amyrin] | > 1 | > 1000 | > 1000 | > 1000 | > 1000 | > 1000 | > 1000 | – | – | – | – | – | – | – | – | – | – | – | MBC ([1]; Actinomyces naeslundii, ATCC19039, read-out: MBC): > 1 µg/mL; MIC [1, 12]: 1000 µg/mL (≈ 2340 µM); MBC ([2]; Actinomyces israelii, ATCC10049, read-out: MBC): > 1 µg/mL; MIC ([4]; Prevotella intermedia, ATCC25611, read-out: MIC): > 1 µg/mL; MIC ([5]; Porphyromonas gingivalis, ATCC33277, read-out: MIC): > 1 µg/mL |
| C=C(C)[C@@H]1CC[C@]2(C(=O)O)CC[C@]3(C)[C@H](CC[C@@H]4[C@@]5(C)CC[C@H](O)C(C)(C)[C@@H]5CC[C@]43C)[C@@H]12 [compound 6, betulinic acid] | 1 (≈ 2.19 µM) | > 1000 | > 1000 | > 1000 | > 1000 | > 1000 | > 1000 | 2.42 | – | – | – | – | – | – | – | – | – | – | MBC [1, 12]: 500 µg/mL (≈ 1090 µM); MIC ([1]; Actinomyces naeslundii, ATCC19039, read-out: MIC): 0.25 µg/mL (≈ 0.547 µM); MBC ([2]; Actinomyces israelii, ATCC10049): 1000 µg/mL (≈ 2190 µM); MIC [4, 15]: 1000 µg/mL (≈ 2190 µM); MIC [5, 16]: 1000 µg/mL (≈ 2190 µM); MIC ([7]; read-out: lowest MIC and MMC value): 250 µg/mL (≈ 547 µM); IC50 at 48 h [9]: 31 µg/mL (≈ 67.8 µM); IC50 apoptotic effects [10]: 22.5 µg/mL (≈ 49.3 µM) |
| O=C1O[C@H]([C@@H](O)CO)C(O)=C1O [vitamin C, reference compound] | – | – | – | – | – | – | – | 1.22 | – | – | – | – | – | – | – | – | – | – | – |
| phytol [compound 5] | – | – | – | – | – | > 1000 | > 1000 | – | >1.0 | >1.0 | >1.0 | >1.0 | > 1000 | > 1000 | > 1000 | >1.0 | > 1000 | >1.0 | – |
| scopoletin [compound 3] | – | – | – | – | – | > 1000 | > 1000 | 1.24 | >1.0 | 1000 | 500 | 250 | > 1000 | > 1000 | 1.0 | 500 | > 1000 | >1.0 | lowest MIC and MMC value [7]: 250 µg/mL; IC50 (cytotoxicity) [11]: 132.5 µg/mL |
